Data: patent publication EP0207358A2, “Growth-promoting agent” (BAYER AG, priority 1985, dated 1987)

These compounds were tested on Weibliche Laborratten (assay: Rat feeding trial (Ratten-Fütterungsversuch)). Settings: female SPF Wistar rats 90-110 g; active substance mixed into standard rat feed ad lib; 13-day trial; compared with control group on feed without active substance.
Assay type: in vivo
Source text: Weibliche Laborratten 90-110 g schwer vom Typ SPF Wistar (Züchtung Hagemann) werden ad lib mit Standard-Rattenfutter, das mit der gewünschten Menge Wirkstoff versetzt ist, gefüttert. Jeder Versuchsansatz wird mit Futter der identischen Charge durchgeführt, so daß Unterschiede in der Zusammensetzung des Futters die Vergleichbarkeit der Ergebnisse nicht beeinträchtigen können.
Die Ratten erhalten Wasser ad lib.
Jeweils 12 Ratten bilden eine Versuchsgruppe und werden mit Futter, das mit der gewünschten Menge Wirkstoff versetzt ist, gefüttert. Eine Kontrollgruppe erhält Futter ohne Wirkstoff. Das durchschnittliche Körpergewicht sowie die Streuung in den Körpergewichten der Ratten ist in jeder Versuchsgruppe gleich, so daß eine Vergleichbarkeit der Versuchsgruppen untereinander gewährleistet ist.
Gewichtszunahme und Futterverbrauch werden während des 13-tägigen Versuches bestimmt.
With `COC(=O)[C@H](Cc1c[nH]c2ccccc12)NC(=O)Nc1cccc2ccccc12` [Beispiel 3] the “Gewichtszunahmen im Vergleich zur Kontrolle” value was “deutliche Gewichtszunahmen”.
For `CC[C@H](C)[C@H](NC(=O)Nc1cccc2ccccc12)C(=O)O` [Beispiel 2], the “Gewichtszunahmen im Vergleich zur Kontrolle” value was “deutliche Gewichtszunahmen”.
With `CCOC(=O)c1c(NC(=O)N[C@@H](CCSC)C(=O)OC)sc(-c2ccccc2)c1C` [Beispiel 1] the “Gewichtszunahmen im Vergleich zur Kontrolle” value was “deutliche Gewichtszunahmen”.
